Experimental findings from patent US12263248B2, “Compounds and compositions for intracellular delivery of therapeutic agents” (ModernaTX, Inc., priority 2018, dated 2025) are described below.

A word on the pKa: it is the negative logarithm of the acid dissociation constant.

For data set [1], the system named is luciferase (Luc) mRNA. Nature of the data set: Luc expression (total flux) after intramuscular administration. In kind it is in vivo, mice. Particulars: for Total flux (p/s) 0.01 mpk Dose: Table 5B, 6 hours after intramuscular administration; for i.m. Lipid/MC3 0.01 mpk, Luc, 6 h: Table 3B. Here is the method: In order to monitor how effectively various nanoparticle compositions deliver therapeutic and/or prophylactics to targeted cells, different nanoparticle compositions including a particular therapeutic and/or prophylactic (for example, a modified or naturally occurring RNA such as an mRNA) are prepared and administered to rodent populations. Mice are intravenously, intramuscularly, intraarterially, or intratumorally administered a single dose including a nanoparticle composition with a formulation such as those provided in Example 3. In some instances, mice may be made to inhale doses. Dose sizes may range from 0.001 mg/kg to 10 mg/kg, where 10 mg/kg describes a dose including 10 mg of a therapeutic and/or prophylactic in a nanoparticle composition for each 1 kg of body mass of the mouse. A control composition including PBS may also be employed.
Sample formulations including both modified luciferase (Luc) mRNA and H10 mRNA were prepared and administered intramuscularly and the resulting expression and immunogenicity were evaluated simultaneously. Formulations including compounds according to Formula (I), (IA), (IB), (II), (IIa), (IIb), (IIc), (IId), (IIe), (IIf), (IIg), (III), (VI), (VI-a), (VII), (VIII), (VIIa), (VIIIa), (VIIIb), (VIIb-1), (VIIb-2), (VIIb-3), (VIIc), (VIId), (VIIIc), or (VIIId) were prepared and administered at doses of 0.001 and 0.01 mpk (e.g., doses of 0.0005 mpk of a formulation including Luc mRNA and a formulation including H10 mRNA or doses of 0.005 mpk of a formulation including Luc mRNA and a formulation including H10 mRNA).
Sample formulations including modified luciferase (Luc) mRNA prepared and administered intramuscularly and the resulting expression and immunogenicity were evaluated simultaneously. Formulations including compounds according to Formula (I), (IA), (IB), (II), (IIa), (IIb), (IIc), (IId), (IIe), (IIf), (IIg), (III), (VI), (VI-a), (VII), (VIII), (VIIa), (VIIIa), (VIIIb), (VIIb-1), (VIIb-2), (VIIb-3), (VIIc), (VIId), (VIIIc), or (VIIId) were prepared and administered at dose of and 0.01 mpk.

Data set [2] relates to luciferase (Luc) mRNA. Description: Luc expression, whole body bioluminescence after intravenous administration to mice. In kind it is in vivo. Particulars: mice, i.v., 0.5 mg/kg, Luc mRNA. The procedure, abridged: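 Bioluminescence, read as region-of-interest total flux at 3, 6 and 24 h, followed a single 0.5 mg/kg intravenous dose of Luc mRNA-loaded nanoparticles in mice (n=6). Luciferin substrate (200 μL, 15 mg/mL in PBS) was injected intraperitoneally into CD-1 mice 15 minutes ahead of each imaging point.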

Data set [3] in a line: Apparent (surface) pKa of the LNP formulation (TNS assay). It is filed as physicochemical. Particulars: Table 1A. A digest of the protocol:
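Fluorescence of TNS probe added to LNP samples (mRNA 0.04 mg/mL) was read across 21 buffers of pH about 3-12, triplicate per pH. The inflection point of the sigmoidal fluorescence-vs-pH curve, […], gives apparent pKa; method validated in 1× PBS and Tris/sucrose buffer.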

Data set [4] concerns luciferase (Luc) mRNA. Nature of the data set: Luc expression in liver, lung, spleen and femur 6 hours after intravenous administration. It is filed as in vivo. As to conditions: mice, intravenous, 0.5 mpk. The procedure, abridged:
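LNP-formulated mRNA given IV to mice (n=3) at 0.5 mpk; at 6 h, bioluminescence imaged ex vivo 15 min after IP D-luciferin (15 mg/mL, 200 μL), organs imaged within 25 min. Values are total flux by region of interest.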

The nature of data set [5]: Encapsulation efficiency of RNA (QUANT-IT RIBOGREEN RNA assay). Particulars: Table 1A. It is filed as physicochemical. A digest of the protocol: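 RiboGreen fluorescence (ex ~480, em ~520 nm) compared between intact samples and Triton X-100-lysed samples after 15 min at 37 °C in TE buffer, pH 7.5. Percent free RNA is the blank-corrected intact/disrupted ratio.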
A short description of data set [6]: Particle size and polydispersity index of nanoparticle compositions (Zetasizer Nano ZS). It is filed as physicochemical. Particulars: Table 1A; for Size (nm): lipid:DSPC:cholesterol:PEG-DMG 50:10:38.5:1.5 mol %. A digest of the protocol: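 Values are size and PDI readings from a Zetasizer Nano ZS. Measurements are taken in 1×PBS; zeta potential, by contrast, uses 15 mM PBS.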

Take `CCCCCCCCCOC(=O)CCCCCCCN(C)CCCCCCCC(=O)OC(CCCCCCCC)CCCCCCCC` [Compound 123, Heptadecan-9-yl 8-(methyl(8-(nonyloxy)-8-oxooctyl)amino)octanoate]: in the data set with luciferase (Luc) mRNA [1], the “Total flux (p/s) 0.01 mpk Dose” value is 1.08E+07 p/s. In addition, in the data set with luciferase (Luc) mRNA [2], the “Total Flux 3 hours” value was found to be 4.06E+09 and the “Total Flux 6 hours” value worked out at 1.81E+10. For the same compound, the “Total Flux 24 hours” value in the data set on luciferase (Luc) mRNA [2] (24 hours) is on record as 5.18E+08. For the same compound, the pKa in data set [3] amounted to 6.27. Further, the “Total Flux Liver” value in the data set on luciferase (Luc) mRNA [4] (liver) was determined as 2.50E+08. In addition, in the data set with luciferase (Luc) mRNA [4] (lung), the “Total Flux Lung” value came to 1.78E+06. Moreover, the “Total Flux Spleen” value in the data set on luciferase (Luc) mRNA [4] (spleen) was found to be 4.04E+06.
Consider `CCCCCCCCCOC(=O)CCCCCCCN(CCCCCCCC(=O)OC(CCCCCCCC)CCCCCCCC)CCCn1cc(CO)nn1` [Compound 218, Heptadecan-9-yl 8-((3-(4-(hydroxymethyl)-1H-1,2,3-triazol-1-yl)propyl)(8-(nonyloxy)-8-oxooctyl)amino)octanoate], for which, in the data set with luciferase (Luc) mRNA [1] (intramuscular, relative to MC3 formulation), the “Novel lipid/MC3 expression ratio, 6 hr. time point, i.m. Luc” value is given as 1.77. The “EE (%)” value in data set [5] stood at 98.8%. Also, the pKa in data set [3] came out at 6.59. Moreover, in data set [6], the PDI is 0.21 and the “Size (nm)” value is on record as 81.4 nm.
`CCCCCCCCCOC(=O)CCCCCCCN(CCCCCCCC(=O)OC(CCCCCCCC)CCCCCCCC)CCCOC(=O)NC` [Compound 175, Heptadecan-9-yl 8-((3-((methylcarbamoyl)oxy)propyl)(8-(nonyloxy)-8-oxooctyl)amino)octanoate]: the “i.m. Lipid/MC3 0.01 mpk, Luc, 6 h” value with luciferase (Luc) mRNA [1] turned out to be 0.1. The “EE (%)” value in data set [5] is recorded as 94.8%. Besides, the pKa in data set [3] was found to be 6.15. Besides, in data set [6], the PDI was 0.16 and the “Size (nm)” value is recorded as 65.7 nm.
For the compound `CCCCCCCCCOC(=O)CCCCCCCN(CCCCCCCC(=O)OC(CCCCCCCC)CCCCCCCC)CCCn1ccc(=O)[nH]c1=O` [Compound 114, Heptadecan-9-yl 8-((3-(2,4-dioxo-3,4-dihydropyrimidin-1(2H)-yl)propyl)(8-(nonyloxy)-8-oxooctyl)amino)octanoate], the “Total flux (p/s) 0.01 mpk Dose” value with luciferase (Luc) mRNA [1] turned out to be 3.31E+06 p/s. Further, in the data set with luciferase (Luc) mRNA [2], the “Total Flux 3 hours” value came to 8.41E+07 and the “Total Flux 6 hours” value stood at 5.98E+07. Moreover, in data set [5], the “EE (%)” value was 98.8%. In addition, in data set [3], the pKa is 6.42. Moreover, in data set [6], the PDI came to 0.11 and the “Size (nm)” value worked out at 65.1 nm.
Turning to `CCCCCCCCCOC(=O)CCCCCCCN(CCCCCCCC(=O)OC(CCCCCCCC)CCCCCCCC)CCCN1C(=O)CNC1=O` [Compound 174, Heptadecan-9-yl 8-((3-(2,5-dioxoimidazolidin-1-yl)propyl)(8-(nonyloxy)-8-oxooctyl)amino)octanoate], the “i.m. Lipid/MC3 0.01 mpk, Luc, 6 h” value in the data set with luciferase (Luc) mRNA [1] is listed as 0.2. Further, in data set [5], the “EE (%)” value is 99.0%. Further, the pKa in data set [3] is 6.65. In data set [6], the PDI worked out at 0.21 and the “Size (nm)” value was 84.4 nm.
Turning to `CCCCCCCCCOC(=O)CCCCCCCN(CCCN)CCCCCCCC(=O)OC(CCCCCCCC)CCCCCCCC` [Compound 121, Heptadecan-9-yl 8-((3-aminopropyl)(8-(nonyloxy)-8-oxooctyl)amino)octanoate], the “Total flux (p/s) 0.01 mpk Dose” value in the data set with luciferase (Luc) mRNA [1] was 1.06E+06 p/s. Further, in the data set with luciferase (Luc) mRNA [2], the “Total Flux 3 hours” value turned out to be 1.29E+06 and the “Total Flux 6 hours” value was determined as 1.36E+06. Moreover, the pKa in data set [3] worked out at 8.50.
In the case of `CCCCCCCCCOC(=O)CCCCCCCN(CCCCCCCC(=O)OC(CCCCCCCC)CCCCCCCC)CCCN(C)S(C)(=O)=O` [Compound 173, Heptadecan-9-yl 8-((3-(N-methylmethylsulfonamido)propyl)(8-(nonyloxy)-8-oxooctyl)amino)octanoate], the “i.m. Lipid/MC3 0.01 mpk, Luc, 6 h” value with luciferase (Luc) mRNA [1] worked out at 0.6. In data set [5], the “EE (%)” value is listed as 92.89%. For the same compound, in data set [3], the pKa was 6.31. Further, in data set [6], the PDI is recorded as 0.16 and the “Size (nm)” value is reported as 75.5 nm.
